Results on one compound are retold here after PMC9339071, “Toward in vivo proof of binding of ^18F-labeled inhibitor [^18F]TRACK to peripheral tropomyosin receptor kinases” (EJNMMI Research, 2022).

This assay addresses T1, TrkA (tropomyosin 3-TrkA fusion protein, TPM3-NTRK1) (Homo sapiens, UniProt P04629).
T1 construct: tropomyosin 3-TrkA fusion protein (TPM3-NTRK1), endogenous in KM12 cells
The assay is described as follows: competition with [18F]TRACK radiotracer uptake in intact KM12 cells. It counts as cell-based.

T1 sequence (P04629 405-796 limits assumed): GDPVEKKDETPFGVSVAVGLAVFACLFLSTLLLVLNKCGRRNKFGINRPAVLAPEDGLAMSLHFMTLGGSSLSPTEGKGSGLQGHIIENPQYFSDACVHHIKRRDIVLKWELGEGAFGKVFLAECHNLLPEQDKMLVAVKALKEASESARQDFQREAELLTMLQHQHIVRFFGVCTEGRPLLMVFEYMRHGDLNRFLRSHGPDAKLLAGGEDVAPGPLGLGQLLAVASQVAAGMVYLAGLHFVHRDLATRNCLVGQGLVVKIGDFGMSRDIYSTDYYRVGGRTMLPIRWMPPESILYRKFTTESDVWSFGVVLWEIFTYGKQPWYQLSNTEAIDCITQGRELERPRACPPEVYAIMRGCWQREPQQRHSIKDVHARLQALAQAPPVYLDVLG
T1 sequence (P06753 2-285 partner): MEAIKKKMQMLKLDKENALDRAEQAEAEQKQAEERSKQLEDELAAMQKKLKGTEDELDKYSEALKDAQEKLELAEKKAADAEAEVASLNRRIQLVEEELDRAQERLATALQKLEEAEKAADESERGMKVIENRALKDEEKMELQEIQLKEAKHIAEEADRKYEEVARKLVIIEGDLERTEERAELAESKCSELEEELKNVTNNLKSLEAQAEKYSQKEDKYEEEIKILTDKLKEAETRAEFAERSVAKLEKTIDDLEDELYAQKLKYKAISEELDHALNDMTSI

As a reminder, the IC50 is the concentration needed to halve the response being measured. Low values mean inhibition by little substance, high ones a need for much substance. For `O=C(Nc1ccc(F)c(F)c1)c1cnc2ccc(N3CCC[C@@H]3c3cccc(F)c3)nn12` [TRACK], the IC50 was found to be 0.0294 ± 0.0094 µM.
